We go through 18 compounds from patent US9969686B2, “Synthesis of diindolylmethanes and indolo[3,2-b]carbazoles, compounds formed thereby, and pharmaceutical compositions containing them” (Wisconsin Alumni Research Foundation, priority 2014, dated 2018).

Like-named read-outs stand apart in the source and are kept apart here. Where only a bound is given, the exact number is not on record here.

For orientation: IC50 means the concentration that inhibits the measured activity by half. For orientation: EC50 means the concentration giving half of the maximal effect.

For data set [1] the following is noted: in human; cited from earlier work.
In data set [2] the test system is secreted PCSK9 in HepG2 cells. As to the kind of experiment: PCSK9 inhibition assay (AlphaLISA, secreted PCSK9). Type of data set: cell-based. As to conditions: Homo sapiens, Table 5. The source says: PCSK9 expression is actively regulated at transcription levels. Statins are known to stimulate PCSK9 transcription which in turn curbs the efficacy of statins in LDL lowering in humans. […] The PCSK9 SI phenotypic assay is designed to identify compounds that inhibit synthesis of PCSK9 in human hepatoma cell lines (HepG2). See, for example, Horton, J. D., Cohen, J. C., and Hobbs, H. H., “PCSK9: a convertase that coordinates LDL catabolism,” J. Lipid Res. 50 Suppl, S172-177, (2009); Crunkhorn, S. “Trial watch: PCSK9 antibody reduces LDL cholesterol,” Nat Rev Drug Discov 11, 11, (2012); Vogel, R. A., “PCSK9 inhibition: the next statin,” J Am Coll Cardiol 59, 2354-2355, (2012); Li, H., Dong, B., Park, S. W., Lee, H. S., Chen, W., and Liu, J., “Hepatocyte nuclear factor 1alpha plays a critical role in PCSK9 gene transcription and regulation by the natural hypocholesterolemic compound berberine,” J Biol Chem 284, 28885-28895, (2009); and Cao, A., Wu, M., Li, H., and Liu, J., “Janus Kinase activation by cytokine oncostatin M decreases PCSK9 expression in liver cells,” J Lipid Res 52, 518-530, (2011).
Inhibition of secreted PCSK9 was measured in human hepatocellular carcinoma (HepG2) cells using an “AlphaLISA”®-brand assay. Given that this assay is run in an inhibition mode, the viability of cells was also assessed to rule out compounds whose PCSK9 inhibition resulted from deleterious effects on cell health. Freshly cultured HepG2 cells were harvested from poly-d-lysine-coated T225 cell culture flasks and plated in biocoat poly-d-lysine coated 384 black with clear bottom microtiter plates (BD BioCoat #356663; Becton, Dickinson and Company, Franklin Lakes, N.J., USA) at 20,000 cells/well in 60 ul of growth media (MEM+10% heat inactivated FBS+1% NEAA+1% sodium pyruvate+1% GlutaMAX). Cell plates were incubated overnight at 37° C. and 5% CO2 prior to compound treatment.
Compounds were serially diluted 3-fold in 100% DMSO to achieve a starting final assay plate concentration of 50 uM following a 20-fold dilution in assay media (MEM+5% heat inactivated FBS+1% NEAA+1% sodium pyruvate+1% GlutaMAX) and a 10-fold dilution into the cell plates. While the compounds were diluting, the cell plates were washed twice with 75 ul of assay media and refilled with 45 ul of assay media. The cell plates were incubated for 48 hrs at 37° C. and 5% CO2 prior to running the “AlphaLISA”®-brand assay. The “AlphaLISA”® bead mix was assembled in water and left to incubate 1 hr in the dark prior to use (1× “AlphaLISA”® buffer, 5 mg/ml mAb-PCSK9-A4 conjugated acceptor beads, 3.4 uM bioti-mAb-anti-PCSK9-B9, 5 mg/ml streptavidin-coated donor beads). […] In the dark, 5 ul of the bead mix was added to the ProxiPlates, and then the plates were left to incubate at ambient temperature in the dark overnight before being read on an Envision (excitation 680 nm and emission 615 nm). […] The plates were removed from the incubator, sealed with black tape, and read for propidium iodide stained nuclei using an Acumen-brand cell imaging system (TTP Labtech Ltd., Melbourn, Hertfordshire United Kingdom). Percent inhibitions at all concentrations tested were calculated relative to 0.5% DMSO (min effect), and the effect of 50 uM of a fully efficacious PCSK9 inhibitor for the PCSK9 inhibition assay (max effect), or 50 uM Brefeldin A for the viability assay (max effect). IC50 values were calculated using a 4 parameter logistic curve fitting equation.
Background: Bead proximity is the source of the signal in Alpha formats.

Data set [3] concerns GLP-1 secretion. The data set is described as follows: GLP-1 secretion assay (Table 5; cell line not stated). Type of data set: cell-based. As for the experimental part:
The GLP-1 secretion assay identifies compounds that stimulate secretion of glucagonlikepeptide one (GLP-1) in mouse and human cell lines derived from gastrointestinal tract tissue. GLP-1 secretion is measured using an ELISA designed to detect the appropriate forms of GLP-1 secreted from these cells. If active in the cell-based GLP-1 assay, molecules can be further tested for selectivity in assays that measure activation of G-protein-coupled receptors (GPCRs) known to stimulate GLP-1 secretion. See, for example, “Glucagon-Like Peptide 1-Based Therapies for Type 2 Diabetes: A Focus on Exenatide,” Kathleen Dungan and John B. Buse; Clinical Diabetes 29 (1), (Winter 2011); and “Glucagon-Like Peptide 1 Secretion by the L-Cell,” Gareth E. Kim and Patricia L. Brubaker; Diabetes: 55 (supplement 2), (December, 2006).
The GLP-1 secretion, diabetes phenotypic testing identifies compounds that stimulate secretion of glucagon-like peptide one (GLP-1) in mouse and human cell lines derived from gastrointestinal tract tissue. GLP-1 secretion is measured using an Eli Lilly & Company (Indianapolis, Ind., USA) proprietary ELISA assay that was specifically designed to detect the appropriate forms of GLP-1 secreted from these cells. (Eli Lilly operates a program known Open Innovation Drug Discovery that performs such testing. See https://openinnovation.lilly.com/dd/.) If active in the cell-based GLP-1 assay, molecules are further tested for selectivity in assays that measure activation of GPCRs known to stimulate GLP-1 secretion. See Glucagon-Like Peptide 1-Based Therapies for Type 2 Diabetes: A Focus on Exenatide; Kathleen Dungan and John B. Buse; Clinical Diabetes: 29 (1), (Winter 2011); and Glucagon-Like Peptide 1 Secretion by the L-Cell; Gareth E. Kim and Patricia L. Brubaker; Diabetes: 55 (supplement 2), (December, 2006).

The target of data set [4] is AhR (Homo sapiens (Human), UniProt P35869). As to the kind of experiment: ethoxyresorufin-O-deethylase (EROD) assay, AhR activation (CYP1A1 induction). Format: cell-based. The settings on record: for increase of signal over DMSO treatment: at 10 nM concentration, data not shown. As for the experimental part:
The human Hep G2 cell line from the Small Molecule Screening and Synthesis Facility (UWCCC, Madison, Wis.) and was maintained in DMEM medium supplemented with 10% FBS. Cells were incubated at 37° C. in a humidified atmosphere supplemented with 5% CO2.
Preparation of cells: Cells were cleaved from T75 flasks with 0.05% trypsin. The cells were then collected by spinning at 1 g for 4 min. Excess media containing trypsin was removed from the pellet, which was then re-suspended in growth media. The cells were then counted using a hemocytometer. Cells were plated in sterile 96-well clear bottom black culture plates at a density of 20,000 cells per well in 0.1 mL of media. The cells were then incubated for 24 h at 37° C. in a humidified atmosphere supplemented with 5% CO2.
The ethoxyresorufin-O-deethylase (EROD) assay was performed on cell cultures of human Hep G2 cells. Briefly, 24 h after plating, cells in 96-well plates were treated with AhR agonists and allowed to incubate for 24 h. Each well was then rinsed with 200 uL of PBS buffer twice. To each well was then added 100 uL of 150 nM solution of 7-ethoxyresurufin and allowed to incubate for 2 h. Fluorescence measurements were obtained with a Safire II micro plate reader with excitation at 520 nm with a 25 nm bandwidth and emission at 595 nm with a 20 nm bandwidth.
The bioactivity of malassezin analogs was then investigated. The well-documented ethoxyresorufin-O-deethylase (EROD) assay was used to determine the EC50 values of the compounds towards AhR activation in HepG2 cells. Donato, M. T.; Gomezlechon, M. J.; Castell, J. V. Anal. Biochem. 1993, 213, 29; van Tonder, J. J., University of Pretoria Z. A., Thesis, 2011. This assay measures the induction of cytochrome P450-1A1 (CYP1A1), which is a major outcome of AhR activation. Whyte, J. J.; Jung, R. E.; Schmitt, C. J.; Tillitt, D. E. Crit. Rev. Toxicol. 2000, 30, 347. CYP1A1 selectively converts 7-ethoxyresorufin to the fluorescent product resorufin.

Data set [5] deals with IL5. As to the kind of experiment: IL5 assay (Table 5). Type of data set: cell-based.
The test system of data set [6] is IL-17 secretion from human peripheral blood mononuclear cells (PBMCs). The data set is described as follows: IL-17 phenotypic assay. Type of data set: cell-based. The settings on record: PBMC, Table 5, read-out: IL17, IC50. The source says:
The IL-17 phenotypic assay seeks to identify inhibitors of IL-17 secretion from human peripheral blood mononuclear cells (PBMCs) following stimulation of memory T cells by IL-23, anti-CD3, and anti-CD28. Compounds of interest will inhibit IL-17. See W. Ouyang, J. K. Kolls, V. Zheng, “The biological functions of T helper 17 cell effector cytokines in inflammation,” Immunity, 28, 454-467 (2008); I. I. Ivanov, L. Zhou, D. R. Littman, “Transcriptional regulation of Th17 cell differentiation,” Semin Immunol, 19, 409-417 (2007); N. Mane I, D. Unutmaz, D. R. Littman, “The differentiation of human T(H)-17 cells requires transforming growth factor-beta and induction of the nuclear receptor RORgammat,” Nat Immunol, 9, 641-649 (2008); and M. Ciofani, A. Madar, C. Galan, M. Sellars, K. Mace, F. Pauli, A. Agarwal, W. Huang, C. N. Parkurst, M. Muratet, K. M. Newberry, S. Meadows, A. Greenfield, V. Vang, P. Jain, F. K. Kirigin, C. Birchmeier, E. F. Wagner, K. M. Murphy, R. M. Myers, R. Bonneau, D. R. Littman, “A validated regulatory network for Th17 cell specification.” Cell, 151, 289-303 (2012).

The mark [7] stands for this setting: EROD assay, HepG2 cells, 24 h treatment, read-out: EC50 (AhR Activity of Diindolylmethanes).

Chain of AhR (P35869 11-848): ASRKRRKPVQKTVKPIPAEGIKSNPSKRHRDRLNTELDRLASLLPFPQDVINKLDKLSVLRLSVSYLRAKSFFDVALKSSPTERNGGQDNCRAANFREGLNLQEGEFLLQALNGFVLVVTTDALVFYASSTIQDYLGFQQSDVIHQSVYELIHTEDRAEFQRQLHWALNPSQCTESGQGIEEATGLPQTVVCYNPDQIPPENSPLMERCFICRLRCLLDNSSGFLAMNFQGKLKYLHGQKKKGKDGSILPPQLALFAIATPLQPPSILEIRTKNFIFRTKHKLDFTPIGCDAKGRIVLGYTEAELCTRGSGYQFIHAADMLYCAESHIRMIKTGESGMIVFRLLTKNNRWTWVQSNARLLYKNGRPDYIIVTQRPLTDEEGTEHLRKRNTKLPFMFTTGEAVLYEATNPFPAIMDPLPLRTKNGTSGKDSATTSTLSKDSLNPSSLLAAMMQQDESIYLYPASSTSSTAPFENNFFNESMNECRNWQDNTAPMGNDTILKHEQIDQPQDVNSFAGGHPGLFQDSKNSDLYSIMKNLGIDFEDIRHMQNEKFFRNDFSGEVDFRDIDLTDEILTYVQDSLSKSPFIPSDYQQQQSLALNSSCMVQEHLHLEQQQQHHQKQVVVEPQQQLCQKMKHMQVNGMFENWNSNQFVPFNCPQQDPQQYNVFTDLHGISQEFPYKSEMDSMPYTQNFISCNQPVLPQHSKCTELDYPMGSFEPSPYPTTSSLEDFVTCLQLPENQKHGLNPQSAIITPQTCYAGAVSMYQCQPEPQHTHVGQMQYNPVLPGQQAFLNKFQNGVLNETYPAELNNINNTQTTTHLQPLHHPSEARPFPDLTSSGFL

`Clc1cc2c(cc1Cl)Oc1cc(Cl)c(Cl)cc1O2` [dioxin, 2,3,7,8-tetrachlorodibenzo-p-dioxin]: in data set [1], the “half-life (metabolic stability)” value was 7-10 years.
`COc1ccc(Cc2c(C)c3ccccc3n2S(=O)(=O)c2ccc(C)cc2)c(OC)c1`: half-maximal inhibition in data set [2] (IC50) required 1100 nM. In data set [3], a half-maximal effect (EC50) was put at 2900 nM.
Consider `O=Cc1c(Cc2c[nH]c3ccc(Cl)cc23)[nH]c2ccccc12` [Compound 11a], for which, in data set [4] (setting [7]), the EC50 is 93 ± 150 nM. For the same compound, the “increase of signal over DMSO treatment” value in data set [4] came to 5 fold.
In the case of `Cn1cc(Cc2[nH]c3ccccc3c2C=O)c2ccccc21` [Compound 11d], the “EC50 value relative to that of malassezin” value in data set [4] (EROD assay, HepG2 cells) is on record as “about five”. For the same compound, in data set [4] (setting [7]), the EC50 turned out to be 55 ± 30 nM. In data set [4], the “increase of signal over DMSO treatment” value worked out at 6 fold.
The compound `Cc1ccc(S(=O)(=O)n2c(Cc3cn(C)c4ccccc34)c(C(C)C)c3ccccc32)cc1` gave an IC50 in data set [2] of 1100 nM.
For the compound `COc1ccc2[nH]cc(Cc3[nH]c4ccccc4c3C=O)c2c1` [Compound 11c], in data set [4] (setting [7]), the EC50 turned out to be 230 ± 100 nM.
Regarding `Cc1ccc(S(=O)(=O)n2c(Cc3c[nH]c4cccc(C)c34)c(C)c3ccccc32)cc1`, the EC50 in data set [3] stood at 2600 nM.
Take `Cn1cc(Cc2cc3ccccc3[nH]2)c2ccccc21` [Compound 2351377824]: in data set [4] (Table 5, read-out: AhR, EC50), the EC50 was 90 nM. Also, 17900 nM corresponded to half-maximal inhibition in data set [2] (IC50).
As for `Clc1cccc2c(Cc3cc4ccccc4[nH]3)c[nH]c12` [Compound 2351377820], the half-maximal inhibitory concentration (IC50) in data set [2] is 2800 nM. Besides, in data set [3], the EC50 worked out at 7200 nM.
For `c1ccc2[nH]c(Cc3c[nH]c4ccccc34)cc2c1` [6′, 3-((1H-indol-2-yl)methyl)-1H-indole], in data set [4] (setting [7]), the EC50 amounted to 215 ± 460 nM.
Take `O=Cc1c(Cc2c[nH]c3c(Cl)cccc23)[nH]c2ccccc12` [Compound 11b]: in data set [4] (setting [7]), the EC50 was determined as 320 ± 100 nM.
Consider `COc1ccc2[nH]cc(Cc3cc4ccccc4[nH]3)c2c1` [Compound 10c], for which the EC50 in data set [4] (setting [7]) was 94 ± 270 nM.
Consider `O=Cc1c(Cc2c[nH]c3ccccc23)[nH]c2ccccc12` [Compound 6, 2-((1H-indol-3-yl)methyl)-1H-indole-3-carbaldehyde, reference compound], for which, in data set [4] (setting [7]), the EC50 is 270 ± 100 nM.
With `Cc1ccc(S(=O)(=O)n2c(Cc3[nH]c4ccccc4c3CC#N)c(C)c3ccccc32)cc1`, the IC50 is more than 30000 nM in data set [5] and 3100 nM in data set [6].
Take `Cn1cc(Cc2cc3ccccc3[nH]2)c2ccccc21` [Compound 10d]: in data set [4] (setting [7]), the EC50 was 86 ± 40 nM.
Compound `Clc1ccc2[nH]cc(Cc3cc4ccccc4[nH]3)c2c1` [Compound 2351377819] gave an IC50 in data set [2] of 10000 nM. The compound further had a half-maximal effective concentration (EC50) in data set [3] of 14800 nM.
For the compound `Cc1ccc(S(=O)(=O)n2c(COC(C)C)c(C)c3ccccc32)cc1`, the EC50 in data set [3] was found to be 7300 nM.
On to `Brc1ccc2[nH]cc(Cc3cc4ccccc4[nH]3)c2c1` [Compound 2351377823], for which the EC50 in data set [3] is 6800 nM.
